Experimental data from US20230219934A1, “2,3-DISUBSTITUTED PYRIDO[3,4-B]PYRAZINE-CONTAINING COMPOUNDS AS KINASE INHIBITORS” (Purdue Research Foundation, priority 2020, published 2023).
pIC50: −log10 of the molar value.

Assays:
[1] = system: K562 cell line (leukemia); experiment: NCI-60 GI50 determination, K562; format: cell-based; conditions: Homo sapiens, NCI Developmental Therapeutics Program in-vitro testing, 48 h
Method: (§1) According to the National Cancer Institute, Bethesda, Md. (the protocol of the Drug Evaluation Branch), the effects of compounds are measured as follows: Cell suspensions are diluted to a target cell density of 5000-40,000 cells per well (based on cell growth characteristics) in a 96-well microtiter plates. The test compounds were evaluated at five concentrations (10-fold dilutions) with the highest concentration being 100 μM. The incubation period was 48 h under 5% carbon dioxide atmosphere and 100% humidity. A sulforhodamine B assay was used to assay the cells. Optical densities of the wells were read by a plate reader the optical densities were processed into GI50 (the concentration that causes 50% growth inhibition).
(§2) The NCI renamed the IC50 value, the concentration of compound that causes 50% growth inhibition, as follows.
(§3) GI50=100×(T−T0)/(C−T0)=50, where T=the optical density of the test well after a 48-h period of exposure to test drug, T0=the optical density at time zero, C=the control optical density. The control is the well not treated with test agent (https://dtp.cancer.gov/databases_tools/docs/compare/compare_methodology.htm).

EKVX (NSCLC) = experiment: NCI-60 GI50 determination, EKVX; format: cell-based; conditions: Homo sapiens, NCI Developmental Therapeutics Program in-vitro testing, 48 h
Method: as §1, §2, §3

[2] = system: KM12 (colon and driven by TrkA kinase); experiment: NCI-60 GI50 determination, KM12; format: cell-based; conditions: Homo sapiens, NCI Developmental Therapeutics Program in-vitro testing, 48 h
Method: as §1, §2, §3

[3] = system: some lung and colon cancers; experiment: NCI-60 potency comparison on lung and colon cancers; format: cell-based; conditions: more potently than HSL212
Method: as §1, §2, §3

Tolerability in mice = format: in vivo
[4] = system: tumor harboring solvent front RET810 mutation; experiment: Growth of tumor harboring solvent front RET810 mutation; format: in vivo, mice; conditions: HSL476 at 25 mg/Kg (daily)
MiaPaCa-2 = experiment: MIA PaCa-2 pancreatic cancer cell growth inhibition (CellTitre Blue viability); format: cell-based; conditions: Homo sapiens, pancreatic cancer cell line, 72 hours
Method: Cell Culture: MIA PaCa-2 cells were cultured in RPMI media supplemented with 10% fetal bovine serum, 1% GlutaMax Supplement (GIBCO™), 1% Penicillin-Streptomycin (GIBCO™). Cells were seeded in a 96-well plate at 1.1×10^4 cells/mL. Cells were incubated at […] for 24 hours after which plates were treated in triplicates with 10 uL of compound (0.6 μM in DMSO) that was further diluted in the same media (5 μL of compound into 145 μL of media). For IC50 compounds were tested at 9 different concentrations, initial concentration of 0.6 μM in DMSO and subsequently diluted by a third for the other 8 concentrations. This was incubated at […] for 72 hours after which 10 uL of The CellTitre Blue Cell Viability Assay (Promega, Madison Wis.) was added to each well and incubated at […] for 3 hours. Plates were read on a CYTATION™ 5 Cell Imaging Multi-Mode Reader (BioTek). Appropriate controls were used. Graphed using GraphPadPrism 5.0 Software.

[5] = system: cell line harboring RET G810R; experiment: Inhibition of cell line harboring RET G810R; format: cell-based; conditions: under similar conditions
[6] = system: cell lines harboring RET solvent front mutations; experiment: Inhibition of selpercatinib and pralsetinib-resistant cell lines; format: cell-based
Oral bioavailability = conditions: in vivo

| SMILES | GI50 [1] | GI50 (EKVX (NSCLC)) | GI50 [2] | Effect on growth of tumor harboring solvent front RET810 mutation [4] | pIC50 [5] | further results |
| --- | --- | --- | --- | --- | --- | --- |
| Cc1nc2cncc(C#Cc3cncc(C(=O)Nc4ccc(CN5CCN(C)CC5)c(C(F)(F)F)c4)c3)c2nc1C [HSL211, 5-((2,3-dimethylpyrido[3,4-b]pyrazin-8-yl)ethynyl)-N-(4-((4-methylpiperazin-1-yl)methyl)-3-(trifluoromethyl)phenyl)nicotinamide] | < 5 nM | 484 nM | < 5 nM |  |  | Potency relative to HSL212 on some lung and colon cancers [3]: ~100 × |
| CN1CCN(Cc2ccc(NC(=O)c3cncc(C#Cc4cncc5nccnc45)c3)cc2C(F)(F)F)CC1 [HSL212, N-(4-((4-methylpiperazin-1-yl)methyl)-3-(trifluoromethyl)phenyl) (pyrido[3,4-b]pyrazin-8-ylethynyl)nicotinamide] | < 5 nM | > 50000 nM | 136 nM |  |  |  |
| Cc1nc2cnc(N)c(C#Cc3cncc(C(=O)Nc4ccc(CN5CCN(C)CC5)c(C(F)(F)F)c4)c3)c2nc1C [HSL476, 5-((7-amino-2,3-dimethylpyrido[3,4-b]pyrazin-8-yl)ethynyl)-N-(4-((4-methylpiperazin-1-yl)methyl)-3-(trifluoromethyl)phenyl)nicotinamide] |  |  |  | could reduce growth tumor | 7.74 | Tolerability (Tolerability in mice): well tolerated; pIC50 (MiaPaCa-2): 7.60; pIC50 [6]: > 7.70; Oral bioavailability (Oral bioavailability): orally bioavailable |
| COc1ccc(CN2C3CC2CN(c2ccc(-c4cc(OCC(C)(C)O)cn5ncc(C#N)c45)cn2)C3)cn1 [Selpercatinib, reference compound] |  |  |  | ineffective | 5.58 |  |
| Cc1ccc(C(=O)Nc2ccc(CN3CCN(C)CC3)c(C(F)(F)F)c2)cc1C#Cc1cnc2cccnn12 [ponatinib] |  |  |  |  | 7.11 |  |
| CO[C@]1(C(=O)N[C@@H](C)c2ccc(-n3cc(F)cn3)nc2)CC[C@H](c2nc(C)cc(Nc3cc(C)[nH]n3)n2)CC1 [pralsetinib] |  |  |  |  | 5.14 |  |
